Results published in patent US20100204460A1, “NATURAL BRASSINOSTEROIDS FOR USE FOR TREATING HYPERPROLIFERATION, TREATING PROLIFERATIVE DISEASES AND REDUCING ADVERSE EFFECTS OF STEROID DYSFUNCTION IN MAMMALS, PHARMACEUTICAL COMPOSITION AND ITS USE” (priority 2007, published 2010).
“Also recorded” adds a separate entry of the source.

How the values were obtained:
LNCaP cells = assay: Western blot of cell cycle and apoptosis related proteins, LNCaP; format: cell-based; details: IC50 for 6, 12, 24 h vs untreated control
Procedure: The cells were seeded in a density 1.6×10^4 cells/cm^2 (LNCaP), 1.4×10^4 cells/cm^2 (DU-145, MDA-MB-468 and MCF-7) using culture medium in 100-mm culture Petri dishes. After reaching of 70-80% confluence, the cells were treated with tested compounds 9 in concentration IC50 that were evaluated by MTT analysis described above. DMSO was used as a vehicle for controls. After 6, 12 and 24 h treatment, the cells were washed with cold PBS and scraped in ice-cold protein extract ion buffer (50 mM HEPES, pH 7.5; 150 mM NaCl; 1 mM EDTA; 2.5 mM EGTA; 10% glycerol; 0.1% Tween 20) with protease and phosphatase inhibitors (25 μL/mL phenylmethanesulphonyl fluoride; 2.5 μL/mL leupeptin; 0.1 mM Na3VO4; 2.5 μL/mL aprotinin; 10 mM β-glycerol-phosphate; 1 mM dithiothreitol). The lysates were collected into microfuge tube and incubated on ice for 1 h. Cells were incubated 60 min at 4° C. under time by time shaking in protein extraction buffer. After centrifugation at 45 000×g for 30 min at 4° C., supernatant was collected, aliquoted, and stored at −80° C. The protein content in the lysates was measured by a Bredford assay (Bio-Rad Laboratories, Hercules, Calif., USA) according to the manufacture's protocol.
For Western blot analysis, equal aliquots of proteins (15-30 μg/well) were loaded on 10% or 12% SDS-PAGE gels and transferred onto nitrocellulose membranes (Amersham Biosciences, Vienna, Austria) by semi-dry electrophoretic transfer. Coloured marker (Rainbow™, Amersham Biosciences, Vienna, Austria) was used as a protein molecular weight standard. The non-specific binding sites were blocked by incubating the blot with 5% (w/v) non-fat dry milk in PBS for 2 h. The blot was incubated overnight in 4° C. with appropriate primary antibody that detects the protein epitope of interest and finally washed in PBS with 0.1% Tween 20 for 1 h. The blot was incubated with the diluted secondary goat anti-mouse IgG-horseradish peroxidase conjugated antibody (dilution 1:6000, Santa Cruz Biotechnology, Santa Cruz, Calif., USA) or goat anti-rabbit IgG-horseradish peroxidase conjugated antibody (dilution 1:2000, DakoCytomation, Glostrup, Denmark) for 45 min in 4° C. The membrane was washed in PBS with 0.1% Tween 20 for 1 h. The proteins were detected using a chemiluminescence detection system (Amersham Biosciences, Vienna, Austria) according to the protocol provided by the manufacturer. Equality of loaded proteins was confirmed by Ponceau S membrane staining (Sigma, St. Louis, Mo., USA) and by detection of anti-tubulin-α or anti-mcm-7 antibodies. The experiments were repeated three times. The protein expressions in treated cells were compared to untreated controls.
Western blot analysis was used to detect changes in apoptosis related protein expression in breast and prostate cancer cell lines. […] This decreased expression of Bid can indicate a cleavage of the protein after treatment by BRs. In DU-145 cell line, expression of pro-apoptotic proteins Bax and Bid was unchanged. […] On the other hand, caspase cleavage was not found in DU-145 cells. Poly-(ADP-ribose) polymerase (PARP) positive expression in controls of prostate cancer cell lines was observed but brassinosteroids had no effect on its expression nor on its degradation within the period 6/12/24 h (FIG. 6B).

MCF-7 cells = assay: BrdU incorporation assay, MCF-7; format: cell-based
Procedure: To analyze if the inhibition in cell viability was due to decreased cell proliferation, we measured DNA synthesis in the presence of BRs. The effect of brassinosteroids 9 or 6 on cell proliferation and DNA replication of the cancer cells was measured by BrdU incorporation assay. This immunostaining was based on nuclear incorporation of bromodeoxyuridine (BrdU) into DNA in place of thymidine during the S-phase of cell cycle detected by anti-specific-BrdU antibody following membrane permeabilization as described previously (Gratzner, Science. 1982, 218, 474-475). […] The BrdU reagent (0.1 mM; Sigma, MO, USA) was added in culture medium with cells for 4 h in a CO2 incubator at 37° C. After incubation the cells were washed three times with PBS and fixed with cold acetone-methanol (1:1, v/v) for 10 min. The cells were denaturated by HCl (1:5; Lachema, Czech Republic) and incubated with anti-specific-BrdU antibody (diluted 1:100 in PBS; clone Bu20a, DakoCytomation, Denmark) for 60 min in the dark. The cells were then washed three times in PBS (10 mM, pH 7.4) and incubated with goat anti-mouse fluorescein isothiocyanate (FITC)-labeled secondary antibody (Sigma, MO, USA) for 60 min in the dark. The cells were then washed three times in PBS and incubated with DAPI (50 μg/mL; Sigma, MO, USA) for 10 min in the dark. The coverslips with cells were washed in deionized water and mounted on glass slides, using the hydrophilic medium Mowiol (Calbiochem, Calif., USA) in glycerol-PBS (1:3, v/v) for fluorescence. Cells were visualized using microscopy and those incorporating BrdU (S phase cells) were counted in at least 25 fields and compared with the total number of all cells.

[1] = treated at IC50 for 6 h, control 50 ± 3.6
[2] = treated at IC50 for 12 h, control 53 ± 3.5
[3] = treated at IC50 for 24 h, control 69 ± 4.5

SMILES | MDM-2 expression (Western blot) (LNCaP cells) | anti-apoptotic protein Bcl-2 expression (Western blot) (LNCaP cells) | caspase-3 cleavage / activation (Western blot) (LNCaP cells) | p21Waf1/Cip1 expression (Western blot) (LNCaP cells) | p27Kip1 expression (Western blot) (LNCaP cells) | p53 expression (Western blot) (LNCaP cells) | pro-apoptotic Bax level (Western blot) (LNCaP cells) | percentage of proliferating BrdU positive cells (MCF-7 cells; [1]) [%] | percentage of proliferating BrdU positive cells (MCF-7 cells; [2]) [%] | percentage of proliferating BrdU positive cells (MCF-7 cells; [3]) [%]
CC[C@@H](C(C)C)[C@@H](O)[C@H](O)[C@@H](C)[C@H]1CC[C@H]2[C@@H]3CC(=O)[C@H]4C[C@H](O)[C@H](O)C[C@]4(C)[C@H]3CC[C@]12C [Brassinosteroid 9, 28-Homocastasterone] | increased after 9 treatment (6 h) | decreased after treatment with 9 (6, 12 and 24 h); also recorded: significant decrease in the levels of anti-apoptotic Bcl-2 protein | induced degradation of caspase-3 into its cleaved fragments after all time points (6, 12 and 24 h); also recorded: degradation of procaspase-3 into cleaved fragments was detected after all time points | decreased level of p21^Waf1/Cip1 after 12 h | increased level of p27^Kip1 after 24 h | decreased expression of p53 after brassinosteroids 9 or 6 treatment was found after 12 and 24 h | increased level of pro-apoptotic Bax after the 9 treatment after 6 and 12 h; also recorded: increase in the pro-apoptotic Bax protein | 46 ± 2.5 | 31 ± 3.8 | 29±4.0
CC(C)[C@@H](C)[C@@H](O)[C@H](O)[C@@H](C)[C@H]1CC[C@H]2[C@@H]3COC(=O)[C@H]4C[C@H](O)[C@H](O)C[C@]4(C)[C@H]3CC[C@]12C [Brassinosteroid 6, 24-Epibrassinolide] | unchanged | decreased after treatment with 9 (6, 12 and 24 h) or 6 (6 and 24 h) | activation of caspase-3 after 24 h; also recorded: degradation of procaspase-3 into cleaved fragments was detected after all time points of treatment with 9 and after 24 h treatment with 6 | decreased expression of p21^Waf1/Cip1 after 6 and 24 h | decreased expression of p21^Waf1/Cip1 after 6 and 24 h treatment and p27^Kip1 protein expression after 6 and 12 h | decreased expression of p53 after brassinosteroids 9 or 6 treatment was found after 12 and 24 h |  | 42 ± 3.2 | 40 ± 7.1 | 36 ± 5.5
